pIC50: −log10 of the molar value. Active and inactive are the calls of the source. How the source made its calls: active means viability on the fitted dose curve at most 10% of control; inactive means the rest.
System: ASPS-1 complex tumor spheroids, viability
Assay: Anticancer human tumor ASPS-1 cell line growth inhibition;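 further: spheroids exposed to agents for 7 days after 3 days of growth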;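 on viability, T/C: 100% = DMSO vehicle treated spheroids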
Settings: for pIC50: curve of first compound; for viability, T/C: stronger effect = lower value
Text: Multicellular complex tumor spheroid response to DNA repair inhibitors in combination with DNA-damaging drugs
This study explores the anticancer activities of DNA-damaging drugs and inhibitors of DNA damage repair, both as single agents and in combinations. Complex tumor spheroids comprised of malignant cells, endothelial cells and mesenchymal stem cells served as an in vitro model for human solid tumors. This model system incorporates physiologically relevant features and patient-derived or established malignant cell lines with clinically relevant genetic alterations from many tumor types. Twenty-six patient-derived or established malignant cell lines were evaluated representing sarcoma, melanoma, small cell lung cancer (SCLC), non-small cell lung cancer (NSCLC), as well as bladder, ovarian and pancreatic cancers. The concentration ranges selected for each drug and investigational agent were based upon clinically achievable concentrations if the clinical Cmax of the agent was known.
Compounds. The drugs and compounds olaparib (NSC753686), talazoparib (NSC767125), berzosertib (NSC777718), elimusertib (NSC800525), nedisertib (NSC802822), VX-984 (NSC792969), AZD-1390 (NSC803789), temozolomide (NSC362856), topotecan (NSC609699), trabectedin (NSC813783), staurosporine (NSC755774), and gemcitabine (NSC613327) were obtained from the National Cancer Institute (NCI) Developmental Therapeutics Program Chemical Repository. The FDA-approved anticancer drug set is available from the Developmental Therapeutics Program at https://dtp.cancer.gov/organization/dscb/obtaining/available_plates.htm. […] The stock solutions were prepared in dimethyl sulfoxide (DMSO, Sigma-Aldrich, St. Louis, MO, cat. D2650) at 400-fold the tested concentration and stored at -70 degrees C. Prior to their use, the stock solutions were diluted in fresh medium and the final DMSO concentration in the assay was 0.25% (v/v). All drugs and investigational agents were tested over a range starting from a high concentration at or near the clinical Cmax and decreasing in half-log increments. If the clinical Cmax for an agent had not been determined, the highest concentration tested was 10 microM.
Cell Lines. The patient-derived cancer cell (PDC) lines: 156681-154-R-J1-PDC, 283228-195-R-J1-PDC, 287954-098-R-J1-PDC, 292921-168-R-J2-PDC, 349418-098-R-PDC, 425362-245-T-J1-PDC, 556581-035-R-J1-PDC, and BL0293-F563-PDC were received from the NCI Patient-Derived Models Repository (PDMR, https://pdmr.cancer.gov). The established cell lines HS-SY-2 (RRID:CVCL_8719), MPNST, and SYO-1 (RRID:CVCL_7146) were obtained from the Sloan Kettering Institute. The alveolar soft parts sarcoma cell line ASPS-1 (RRID:CVCL_S738) was established at the NCI and grown from internal seed stocks. The following established cell lines were purchased from the American Type Culture Collection (ATCC, Manassas, VA): G-401 (ATCC, cat. CRL-1441, RRID:CVCL_0270), SW982 (ATCC, cat. HTB-93, RRID:CVCL_1734), VA-ES-BJ (ATCC, cat. CRL-2138, RRID:CVCL_1785), NCI-H719 (ATCC, cat. CRL-5837, RRID:CVCL_1582), NCI-H196 (ATCC, cat. CRL-5823, RRID:CVCL_1509), NCI-H841 (ATCC, cat. CRL-5845, RRID:CVCL_1595), NCI-H1618 (ATCC, cat. CRL-5879, RRID:CVCL_1480), NCI-H1876 (ATCC, cat. CRL-5902, RRID:CVCL_1503), DMS 114 (ATCC, cat. CRL-2066; RRID:CVCL_1174), NCI-H211 (ATCC, cat. CRL-5824; RRID:CVCL_1529), and SW 1271 (ATCC, cat. CRL-2177, RRID:CVCL_1716). The small cell lung cancer cell line COR-L88 was purchased from Sigma-Aldrich (cat. 92031917-1VL, RRID:CVCL_1141). The non-small cell lung cancer cell lines NCI-H226 (RRID:CVCL_1544) and NCI-H322M (RRID:CVCL_1557) were established at the NCI and grown from internal seed stocks. Pooled donor human umbilical vein endothelial cells (HUVEC, Lonza, cat. CC-2519) and human mesenchymal stem cells (hMSC, Lonza, cat. PT-2501) were purchased from Lonza (Walkersville, MD).
Cell Culture. All cells were maintained in an incubator at 37 degrees C and 5% CO2 with 95% humidity. […]

[1] = second compound 0.003 µM, first compound 0.00949 µM
[2] = second compound 0.003 µM, first compound 0.03 µM
[3] = second compound 0.003 µM, first compound 0.0949 µM
[4] = second compound 0.003 µM, first compound 0.3 µM
[5] = second compound 0.003 µM, first compound 0.949 µM
[6] = second compound 0.003 µM, first compound 3 µM
[7] = second compound 0.00949 µM, first compound 0.00949 µM
[8] = second compound 0.00949 µM, first compound 0.03 µM
[9] = second compound 0.00949 µM, first compound 0.0949 µM
[10] = second compound 0.00949 µM, first compound 0.3 µM
[11] = second compound 0.00949 µM, first compound 0.949 µM
[12] = second compound 0.00949 µM, first compound 3 µM
[13] = second compound 0.03 µM, first compound 0.00949 µM
[14] = second compound 0.03 µM, first compound 0.03 µM
[15] = second compound 0.03 µM, first compound 0.0949 µM
[16] = second compound 0.03 µM, first compound 0.3 µM
[17] = second compound 0.03 µM, first compound 0.949 µM
[18] = second compound 0.03 µM, first compound 3 µM
[19] = second compound 0.0949 µM, first compound 0.00949 µM
[20] = second compound 0.0949 µM, first compound 0.03 µM
[21] = second compound 0.0949 µM, first compound 0.0949 µM
[22] = second compound 0.0949 µM, first compound 0.3 µM
[23] = second compound 0.0949 µM, first compound 0.949 µM
[24] = second compound 0.0949 µM, first compound 3 µM
[25] = second compound 0.3 µM, first compound 0.00949 µM
[26] = second compound 0.3 µM, first compound 0.03 µM
[27] = second compound 0.3 µM, first compound 0.0949 µM
[28] = second compound 0.3 µM, first compound 0.3 µM
[29] = second compound 0.3 µM, first compound 0.949 µM
[30] = second compound 0.3 µM, first compound 3 µM

Compound | pIC50 (second compound 0.003 µM) | pIC50 (second compound 0.00949 µM) | pIC50 (second compound 0.03 µM) | pIC50 (second compound 0.0949 µM) | pIC50 (second compound 0.3 µM) | viability, T/C [3] [%] | viability, T/C [4] [%] | viability, T/C [5] [%] | viability, T/C [6] [%] | viability, T/C [9] [%] | viability, T/C [10] [%] | viability, T/C [11] [%] | viability, T/C [12] [%] | viability, T/C [15] [%] | viability, T/C [16] [%] | viability, T/C [17] [%] | viability, T/C [18] [%] | viability, T/C [21] [%] | viability, T/C [22] [%] | viability, T/C [23] [%] | also measured
CNCc1ccc(-c2cc(-c3nc(-c4ccc(S(=O)(=O)C(C)C)cc4)cnc3N)on2)cc1 + CC[C@@]1(O)C(=O)OCc2c1cc1n(c2=O)Cc2cc3c(CN(C)C)c(O)ccc3nc2-1 | 6.32 | 6.39 | 6.59 | 7.71 | > 8.02 | 98.8 | 60.8 | 30.8 | 5.94 | 107 | 54.5 | 30.2 | 5.23 | 90.5 | 41.9 | 25.3 | 10.3 | 41.8 | 29 | 22.4 | viability, T/C [1]: 102%; viability, T/C [2]: 103%; viability, T/C [7]: 104%; viability, T/C [8]: 108%; viability, T/C [13]: 97.1%; viability, T/C [14]: 105%; viability, T/C [19]: 54.1%; viability, T/C [20]: 45.6%; viability, T/C [24]: 2.96%; viability, T/C [25]: 44.9%; viability, T/C [26]: 38.3%; viability, T/C [27]: 26.9%; viability, T/C [28]: 23.4%; viability, T/C [29]: 23.7%; viability, T/C [30]: 7.06%
Cc1sc2c(c1C)C(c1ccc(Cl)cc1)=NC(CC(=O)Nc1ccc(O)cc1)c1nnc(C)n1-2 (stereo not given) + CC[C@@]1(O)C(=O)OCc2c1cc1n(c2=O)Cc2cc3c(CN(C)C)c(O)ccc3nc2-1 | < 5.52 | < 5.52 | < 5.52 | < 5.52 | 6.26 | 106 | 107 | 94.4 | 84.2 | 118 | 109 | 97.8 | 88.5 | 102 | 94.4 | 89.6 | 77.4 | 77.2 | 71.2 | 66.9 | viability, T/C [1]: 105%; viability, T/C [2]: 111%; viability, T/C [7]: 114%; outcome [8]: inactive; viability, T/C [13]: 100%; viability, T/C [14]: 105%; viability, T/C [19]: 64.2%; viability, T/C [20]: 71.7%; viability, T/C [24]: 58.8%; viability, T/C [25]: 52.1%; viability, T/C [26]: 55.2%; viability, T/C [27]: 58.7%; viability, T/C [28]: 55.3%; viability, T/C [29]: 44.5%; viability, T/C [30]: 33.7%
Cn1ncnc1[C@H]1c2n[nH]c(=O)c3cc(F)cc(c23)N[C@@H]1c1ccc(F)cc1 + CC[C@@]1(O)C(=O)OCc2c1cc1n(c2=O)Cc2cc3c(CN(C)C)c(O)ccc3nc2-1 | < 5.52 | < 5.52 | 5.58 | > 8.02 | > 8.02 | 101 | 98.4 | 98.8 | 76.5 | 100 | 95.7 | 86.6 | 69.5 | 67.4 | 61.4 | 56.6 | 49 | 43.5 | 38.2 | 38 | viability, T/C [1]: 97.5%; viability, T/C [2]: 98.3%; viability, T/C [7]: 103%; viability, T/C [8]: 92%; viability, T/C [13]: 78.4%; viability, T/C [14]: 75.9%; viability, T/C [19]: 47%; viability, T/C [20]: 40.9%; viability, T/C [24]: 34.1%; viability, T/C [25]: 46.9%; viability, T/C [26]: 41.9%; viability, T/C [27]: 40%; viability, T/C [28]: 41.3%; viability, T/C [29]: 40.1%; viability, T/C [30]: 39%
O=C(c1cc(Cc2n[nH]c(=O)c3ccccc23)ccc1F)N1CCN(C(=O)C2CC2)CC1 + CC[C@@]1(O)C(=O)OCc2c1cc1n(c2=O)Cc2cc3c(CN(C)C)c(O)ccc3nc2-1 | < 4.52 | < 4.52 | < 4.52 | > 7.02 | > 7.02 | 114 | 107 | 101 | 105 | 102 | 106 | 103 | 105 | 84.9 | 88.8 | 90.3 | 77.4 | 45.8 | 50 | 49 | viability, T/C (second compound 0.003 µM, first compound 9.49 µM): 104%; viability, T/C (second compound 0.003 µM, first compound 30 µM): 97.3%; viability, T/C (second compound 0.00949 µM, first compound 9.49 µM): 101%; viability, T/C (second compound 0.00949 µM, first compound 30 µM): 93.5%; viability, T/C (second compound 0.03 µM, first compound 9.49 µM): 71.4%; viability, T/C (second compound 0.03 µM, first compound 30 µM): 66.1%; viability, T/C [24]: 48.6%; viability, T/C (second compound 0.0949 µM, first compound 9.49 µM): 40.1%; viability, T/C (second compound 0.0949 µM, first compound 30 µM): 49.7%; viability, T/C [27]: 49.1%; viability, T/C [28]: 45.4%; viability, T/C [29]: 43.1%; viability, T/C [30]: 44.2%; viability, T/C (second compound 0.3 µM, first compound 9.49 µM): 35.6%; viability, T/C (second compound 0.3 µM, first compound 30 µM): 42.2%

— PubChem BioAssay AID1845200 (Molecular Pharmacology Branch, DTP, NCI, 2023)
